The target of experiment [1] is Histone-lysine N-methyltransferase SUV39H2 (Homo sapiens, UniProt Q9H5I1). The experiment is described as follows: Inhibition of SUV39H2 (unknown origin) using H3 histone peptide substrate and [3H]-SAM incubated for 3 hrs by microbeta counting based assay.
The test system of the next experiment is A549. The experiment is described as follows: Cytotoxicity against human A549 cells assessed as reduction in cell viability incubated for 72 hrs by CCK8 assay. In kind it is functional, cell-based. The following applies: A549, 72 h. For orientation: Tetrazolium assays rely on reduction of a dye to a coloured formazan, in cell work by metabolically active cells.

For a further experiment, the system named is PC-14. The experiment in a line: Cytotoxicity against human PC14 cells assessed as reduction in cell viability incubated for 72 hrs by CCK8 assay. The class given is functional, cell-based. The following applies: PC-14, 72 h.
The subject of a further experiment is HCT-116. The experiment is described as follows: Cytotoxicity against human HCT116 cells assessed as reduction in cell viability incubated for 72 hrs by CCK8 assay. The class given is functional, cell-based. The following applies: HCT-116, 72 h.
The test system of another experiment is CCD-18Co. The experiment is described as follows: Cytotoxicity against human CCD-18Co cells assessed as reduction in cell viability incubated for 72 hrs by CCK8 assay. The class given is functional, cell-based.
A further experiment deals with HFL1. The experiment in a line: Cytotoxicity against human HFL1 cells assessed as reduction in cell viability incubated for 72 hrs by CCK8 assay. The class given is functional, cell-based. The following applies: HFL1, 72 h.

Histone-lysine N-methyltransferase SUV39H2, sequence (Q9H5I1 whole entry): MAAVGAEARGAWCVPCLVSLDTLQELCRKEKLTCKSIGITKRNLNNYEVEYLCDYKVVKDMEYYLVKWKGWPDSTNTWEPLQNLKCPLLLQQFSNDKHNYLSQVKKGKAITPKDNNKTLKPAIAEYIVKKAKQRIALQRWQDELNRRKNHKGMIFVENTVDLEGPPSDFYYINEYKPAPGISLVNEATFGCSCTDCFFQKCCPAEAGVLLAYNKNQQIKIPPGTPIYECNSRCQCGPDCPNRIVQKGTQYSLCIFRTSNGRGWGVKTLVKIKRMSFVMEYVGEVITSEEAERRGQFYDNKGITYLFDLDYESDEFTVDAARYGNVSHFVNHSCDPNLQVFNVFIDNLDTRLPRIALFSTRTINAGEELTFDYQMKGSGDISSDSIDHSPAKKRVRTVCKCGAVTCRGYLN

For orientation: IC50 means the concentration that inhibits the measured activity by half. `CNCC(=O)Nc1ccc(-c2ccn3cc(-c4cc(Cl)c(OC)cc4OC)nc3c2)cc1` showed a concentration for half-maximal inhibition (IC50) in experiment [1] of 0.0801 µM.

As for `COc1cc(OC)c(-c2cn3ccc(N4CCN(c5cnc(N6CCC(NS(=O)(=O)C7CC7)CC6)nc5)CC4)cc3n2)cc1Cl`, in the experiment with A549, the 50% inhibitory concentration (IC50) came to 0.67 µM.

As to `COc1cc(OC)c(-c2cn3ccc(N[C@H]4CC[C@@H](N(C)Cc5ccc(F)cc5)CC4)cc3n2)cc1Cl`, the half-maximal inhibitory concentration (IC50) in the experiment with A549 was determined as 1.3 µM.

For the molecule `COc1cc(OC)c(-c2cn3ccc(N4CCN(Cc5ccc(C#N)nc5)CC4)cc3n2)cc1Cl`, the half-maximal inhibitory concentration (IC50) in the experiment with A549 came out at 0.96 µM.

As to `COc1cc(OC)c(-c2cn3ccc(N[C@H]4C[C@H]5CC[C@@H](C4)N5CC4CCCCC4)cc3n2)cc1Cl`, the IC50 in the experiment on A549 was determined as 0.55 µM.

Regarding `COc1cc(OC)c(-c2cn3ccc(-c4ccc(C(=O)NC5CCNC5)cc4)cc3n2)cc1Cl` (centres undefined), the 50% inhibitory concentration (IC50) in the experiment on A549 was found to be 5.4 µM; with PC-14, 4.8 µM; in the experiment on HCT-116, 3.7 µM; with CCD-18Co, 5.2 µM; with HFL1 it was 5.4 µM.

Take `COc1cc(OC)c(-c2cn3ccc(NC(=O)[C@@H](N)CCCCN)cc3n2)cc1Cl`: the 50% inhibitory concentration (IC50) in the experiment on A549, in the experiment on HCT-116, in the experiment on CCD-18Co and with HFL1 was 10 µM each time.

Molecule `COc1cc(OC)c(-c2cn3ccc(N4CCN(c5cnc(N6CCNCC6)nc5)CC4)cc3n2)cc1Cl` registered an IC50 in experiment [1] of 0.0148 µM.

For the molecule `COCC(=O)N1CCN(c2ccn3cc(-c4cc(Cl)c(OC)cc4OC)nc3c2)C(C)C1` (centres undefined), half-maximal inhibition in experiment [1] (IC50) was put at 0.00188 µM.

For `COc1cc(OC)c(-c2cn3ccc(-c4ccc(C(=O)[C@H](C)N)cc4)cc3n2)cc1Cl`, the IC50 in experiment [1] stood at 0.0995 µM.

`COC(=O)c1ccc(CN[C@H]2CC[C@@H](Nc3ccn4cc(-c5cc(Cl)c(OC)cc5OC)nc4c3)CC2)cc1` displayed an IC50 in experiment [1] of 0.0241 µM.

As to `COc1cc(OCCCN(C)C)c(-c2cn3ccc(N4CCN(C(C)=O)CC4)cc3n2)cc1Cl`, the IC50 with A549 was 6.9 µM; in the experiment with PC-14, 8 µM; with HCT-116, 7.9 µM; with CCD-18Co, 8.7 µM; in the experiment with HFL1, 4.3 µM.

For `COc1cc(OC)c(-c2cn3ccc(N[C@H]4CC[C@@H](N(C)Cc5ccccc5F)CC4)cc3n2)cc1Cl`, the 50% inhibitory concentration (IC50) in the experiment with A549 is 0.74 µM.

The values above are taken from ChEMBL document CHEMBL4476875 (2018).
